Source: PubChem BioAssay AID2060503 (Molecular Pharmacology Branch, DTP, NCI, 2025)

Test system: 817829-284-R-J1-PDC complex spheroids, viability
Experiment: Anticancer human tumor 817829-284-R-J1-PDC patient-derived colon adenocarcinoma cell line growth inhibition [GQUAD]
Settings: for IC50: curve of first compound; for viability, T/C: stronger effect = lower value; active = viability on the fitted dose curve at most 10% of control; inactive = the rest
In short: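 Multi-cell-type spheroids of tumor cells with HUVEC and mesenchymal stem cells, treated with drug combinations. Concentrations descend in half-log steps from near clinical Cmax, or from 10 microM where Cmax is unknown; viability read-out.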

[1] = second compound 0.0316 µM, first compound 0.0316 µM
[2] = second compound 0.0316 µM, first compound 0.316 µM
[3] = second compound 0.1 µM, first compound 0.0316 µM
[4] = second compound 0.1 µM, first compound 0.316 µM
[5] = second compound 0.316 µM, first compound 0.0316 µM
[6] = second compound 0.316 µM, first compound 0.316 µM
[7] = second compound 1 µM, first compound 0.0316 µM
[8] = second compound 1 µM, first compound 0.316 µM
[9] = second compound 3.16 µM, first compound 0.0316 µM
[10] = second compound 3.16 µM, first compound 0.316 µM
[11] = second compound 10 µM, first compound 0.0316 µM
[12] = second compound 10 µM, first compound 0.316 µM
[13] = second compound 0.0316 µM, first compound 0.1 µM
[14] = second compound 0.0316 µM, first compound 1 µM
[15] = second compound 0.0316 µM, first compound 3.16 µM
[16] = second compound 0.0316 µM, first compound 10 µM
[17] = second compound 0.1 µM, first compound 0.1 µM
[18] = second compound 0.1 µM, first compound 1 µM
[19] = second compound 0.1 µM, first compound 3.16 µM
[20] = second compound 0.1 µM, first compound 10 µM
[21] = second compound 0.316 µM, first compound 0.1 µM
[22] = second compound 0.316 µM, first compound 1 µM
[23] = second compound 0.316 µM, first compound 3.16 µM
[24] = second compound 0.316 µM, first compound 10 µM
[25] = second compound 1 µM, first compound 0.1 µM
[26] = second compound 1 µM, first compound 1 µM
[27] = second compound 1 µM, first compound 3.16 µM
[28] = second compound 1 µM, first compound 10 µM
[29] = second compound 3.16 µM, first compound 0.1 µM
[30] = second compound 3.16 µM, first compound 1 µM
[31] = second compound 3.16 µM, first compound 3.16 µM
[32] = second compound 3.16 µM, first compound 10 µM
[33] = second compound 10 µM, first compound 0.1 µM
[34] = second compound 10 µM, first compound 1 µM
[35] = second compound 10 µM, first compound 3.16 µM
[36] = second compound 10 µM, first compound 10 µM
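Note: spheroids exposed to agents for 7 days before readout.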
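Throughout, for viability, T/C: percent viability relative to DMSO vehicle control taken as 100%.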

CC[C@@]1(O)C(=O)OCc2c1cc1n(c2=O)Cc2cc3c(CN(C)C)c(O)ccc3nc2-1 + Cc1[nH]c2ccc(F)cc2c1-c1nc2c3cccnc3c3ncccc3c2[nH]1
inactive: viability, T/C (second compound 0.0316 µM, first compound 0.000999 µM) 119% | viability, T/C (second compound 0.0316 µM, first compound 0.00316 µM) 84.5% | viability, T/C (second compound 0.0316 µM, first compound 0.00999 µM) 92.7% | viability, T/C [1] 51.8% | viability, T/C (second compound 0.0316 µM, first compound 0.0999 µM) 34.9% | viability, T/C [2] 26.6% | viability, T/C (second compound 0.1 µM, first compound 0.000999 µM) 98.8% | viability, T/C (second compound 0.1 µM, first compound 0.00316 µM) 104% | viability, T/C (second compound 0.1 µM, first compound 0.00999 µM) 88.6% | viability, T/C [3] 70.9% | viability, T/C (second compound 0.1 µM, first compound 0.0999 µM) 33.1% | viability, T/C [4] 27.1% | viability, T/C (second compound 0.316 µM, first compound 0.000999 µM) 90% | viability, T/C (second compound 0.316 µM, first compound 0.00316 µM) 111% | viability, T/C (second compound 0.316 µM, first compound 0.00999 µM) 101% | viability, T/C [5] 63.6% | viability, T/C (second compound 0.316 µM, first compound 0.0999 µM) 34.2% | viability, T/C [6] 26.1% | viability, T/C (second compound 1 µM, first compound 0.000999 µM) 91.8% | viability, T/C (second compound 1 µM, first compound 0.00316 µM) 110% | viability, T/C (second compound 1 µM, first compound 0.00999 µM) 109% | viability, T/C [7] 64.8% | viability, T/C (second compound 1 µM, first compound 0.0999 µM) 32.4% | viability, T/C [8] 29.1% | viability, T/C (second compound 3.16 µM, first compound 0.000999 µM) 108% | viability, T/C (second compound 3.16 µM, first compound 0.00316 µM) 111% | viability, T/C (second compound 3.16 µM, first compound 0.00999 µM) 95.1% | viability, T/C [9] 41.9% | viability, T/C (second compound 3.16 µM, first compound 0.0999 µM) 18.2% | viability, T/C [10] 15.7% | viability, T/C (second compound 10 µM, first compound 0.000999 µM) 11% | viability, T/C (second compound 10 µM, first compound 0.00316 µM) 22.5% | viability, T/C (second compound 10 µM, first compound 0.00999 µM) 26.1% | viability, T/C [11] 7.2%
52.2 nM: IC50 (second compound 1 µM)
60.3 nM: IC50 (second compound 0.1 µM)
< 0.999 nM: IC50 (second compound 10 µM)
47.6 nM: IC50 (second compound 0.0316 µM)
26.5 nM: IC50 (second compound 3.16 µM)
51.7 nM: IC50 (second compound 0.316 µM)
active: viability, T/C (second compound 10 µM, first compound 0.0999 µM) 5.98% | viability, T/C [12] 5.1%

COc1cc(C2c3cc4c(cc3C(OC3OC5COC(C)OC5C(O)C3O)C3COC(=O)C23)OCO4)cc(OC)c1O (stereo unspecified) + Cc1[nH]c2ccc(F)cc2c1-c1nc2c3cccnc3c3ncccc3c2[nH]1
active: viability, T/C [34] 8.4% | viability, T/C [35] 6.82% | viability, T/C [36] 2.64%
113 nM: IC50 (second compound 3.16 µM)
216 nM: IC50 (second compound 0.1 µM)
191 nM: IC50 (second compound 0.316 µM)
inactive: viability, T/C [1] 110% | viability, T/C [13] 67.2% | viability, T/C [2] 31.6% | viability, T/C [14] 27.2% | viability, T/C [15] 28.1% | viability, T/C [16] 10.6% | viability, T/C [3] 95.3% | viability, T/C [17] 91.2% | viability, T/C [4] 29.5% | viability, T/C [18] 31.8% | viability, T/C [19] 26% | viability, T/C [20] 9.21% | viability, T/C [5] 86.7% | viability, T/C [21] 80.4% | viability, T/C [6] 26.4% | viability, T/C [22] 32.7% | viability, T/C [23] 28.9% | viability, T/C [24] 9.89% | viability, T/C [7] 85.6% | viability, T/C [25] 89.7% | viability, T/C [8] 30.7% | viability, T/C [26] 30.4% | viability, T/C [27] 25.1% | viability, T/C [28] 9.74% | viability, T/C [9] 109% | viability, T/C [29] 54.1% | viability, T/C [10] 16.8% | viability, T/C [30] 15.2% | viability, T/C [31] 17.8% | viability, T/C [32] 3.63% | viability, T/C [11] 60.5% | viability, T/C [33] 26.2% | viability, T/C [12] 9.53%
184 nM: IC50 (second compound 0.0316 µM)
214 nM: IC50 (second compound 1 µM)
44.8 nM: IC50 (second compound 10 µM)

COc1cccc2c1C(=O)c1c(O)c3c(c(O)c1C2=O)CC(O)(C(=O)CO)CC3OC1CC(N)C(O)C(C)O1 (stereo unspecified) + Cc1[nH]c2ccc(F)cc2c1-c1nc2c3cccnc3c3ncccc3c2[nH]1
< 31.6 nM: IC50 (second compound 10 µM)
84.4 nM: IC50 (second compound 1 µM)
inactive: viability, T/C [1] 106% | viability, T/C [13] 31.4% | viability, T/C [2] 35.2% | viability, T/C [3] 79.8% | viability, T/C [17] 46.1% | viability, T/C [4] 29.7% | viability, T/C [18] 14% | viability, T/C [5] 86.2% | viability, T/C [21] 44.8% | viability, T/C [6] 32.1% | viability, T/C [22] 14.2% | viability, T/C [7] 80.5% | viability, T/C [25] 38% | viability, T/C [8] 31.3% | viability, T/C [26] 13.7% | viability, T/C [9] 80.9% | viability, T/C [29] 26.3% | viability, T/C [10] 18.9% | viability, T/C [11] 22.1% | viability, T/C [33] 12.8%
98.7 nM: IC50 (second compound 0.316 µM)
active: viability, T/C [14] 9.62% | viability, T/C [15] 0.98% | viability, T/C [16] 0.2% | viability, T/C [19] 0.63% | viability, T/C [20] 0.15% | viability, T/C [23] 0.67% | viability, T/C [24] 0.16% | viability, T/C [27] 1% | viability, T/C [28] 0.19% | viability, T/C [30] 7.18% | viability, T/C [31] 0.69% | viability, T/C [32] 0.27% | viability, T/C [12] 11.3% | viability, T/C [34] 3.41% | viability, T/C [35] 0.48% | viability, T/C [36] 0.46%
88.3 nM: IC50 (second compound 0.0316 µM)
94.3 nM: IC50 (second compound 0.1 µM)
64 nM: IC50 (second compound 3.16 µM)
